In DBAASP one finds MIC data, which are given here for six molecules.

Structures are written as SMILES. Converted amounts (≈) assume the structure as drawn.

Some test systems named below: Staphylococcus aureus; Bacillus megaterium Bm11; Escherichia coli ML-35; Shigella sonnei DSM 5570; Escherichia coli K-12; Escherichia coli BL21AI.
What all share (assay): ≥ marks a high value that may be exact or a test limit, other limits are often not marked, values filed in µg/mL are converted to µM
The subject of test [1] is Klebsiella pneumoniae ATCC 43816.
In test [2] the test system is Enterococcus faecalis NCTC 12697.
Test [3] concerns Staphylococcus aureus ATCC 12493.
The test system of test [4] is Staphylococcus aureus NCTC 10788.
Test [5] concerns Escherichia coli NCTC 10418.
Test [6] concerns Pseudomonas aeruginosa ATCC 27853.
Test [7] deals with Candida albicans NCYC 1467.
Test [8] concerns Pseudomonas aeruginosa NBRC 13275.
In test [9] the test system is Escherichia coli DH5alpha.
Test [10] relates to Staphylococcus aureus NBRC 13276.
For test [11], the system named is Staphylococcus epidermidis NBRC 12298.
The subject of test [12] is Staphylococcus aureus 710A.
Test [13] relates to Salmonella enterica subsp. enterica serovar Typhimurium ATCC 14028.
For test [14], the system named is Escherichia coli DSM 1103.
In test [15] the test system is Staphylococcus epidermidis DSM 28319.
Test [16] concerns Salmonella enterica DSM 17058.
For test [17], the system named is Acinetobacter baumannii AL1851-ΔLpxA.
The test system of test [18] is Citrobacter freundii DSM 30029.
The subject of test [19] is Staphylococcus aureus DSM 11729.
Test [20] has as its system Acinetobacter baumannii ATCC 19606.
The subject of test [21] is Klebsiella pneumoniae DSM 789.
In test [22] the test system is Acinetobacter baumannii Al1852-ΔLpxD.
For test [23], the system named is Pseudomonas aeruginosa DSM 1117.
The test system of test [24] is Pseudomonas aeruginosa PA380.
Test [25] deals with Pseudomonas aeruginosa PA214.
In test [26] the test system is Pseudomonas aeruginosa PA330.
Test [27] deals with Pseudomonas aeruginosa PAO1.
Test [28] has as its system Micrococcus luteus DSM 1790.

In general, MIC refers to the lowest concentration found to suppress growth. A low value points to a more susceptible organism.

Regarding `CC(C)C[C@H](NC(=O)[C@H](C)N)C(=O)N[C@@H](Cc1c[nH]c2ccccc12)C(=O)N[C@@H](CCCCN)C(=O)N[C@@H](CCCCN)C(=O)N[C@@H](CC(C)C)C(=O)N[C@@H](CC(C)C)C(=O)N[C@@H](CCCCN)C(=O)N[C@@H](CCCCN)C(=O)N[C@@H](C)C(N)=O` [ALWKKLLKKA], the MIC in test [1] was at least 256 µM; in test [2] it was at least 256 µM; in [3], at least 256 µM; in test [4] it was at least 64 µM; in test [5], 8 µM (≈ 9.58 µg/mL); in [6], 32 µM (≈ 38.3 µg/mL). Moreover, the results for the MIC (in test [7]; in the test on Staphylococcus aureus) were at least 64 µM and above 256 µM, respectively.

`CC[C@H](C)[C@H](NC(=O)CN)C(=O)NCC(=O)N[C@@H](CCCCN)C(=O)N[C@@H](Cc1ccccc1)C(=O)N[C@@H](CC(C)C)C(=O)N[C@@H](Cc1cnc[nH]1)C(=O)N[C@@H](CO)C(=O)N[C@@H](C)C(=O)N[C@@H](CCCCN)C(=O)N[C@@H](CCCCN)C(=O)N[C@@H](Cc1ccccc1)C(=O)NCC(=O)N[C@@H](CCCCN)C(=O)N[C@@H](C)C(=O)N[C@@H](Cc1ccccc1)C(=O)N[C@H](C(N)=O)C(C)C` [GIGKFLHSAKKFGKAFV]: the MIC in test [8] was 3.12 µM (≈ 5.73 µg/mL); in test [9], 3.12 µM (≈ 5.73 µg/mL); in [10], at least 50 µM; in test [11], 12.5 µM (≈ 22.9 µg/mL).

Regarding `CC[C@H](C)[C@H](NC(=O)[C@H](CCCCN)NC(=O)[C@H](CCCCN)NC(=O)[C@H](CC(C)C)NC(=O)[C@H](CC(C)C)NC(=O)CN)C(=O)N[C@@H](C)C(=O)N[C@@H](CCCCN)C(=O)N[C@@H](CCCCN)C(=O)N[C@@H](C)C(=O)N[C@@H](CCCCN)C(=O)N[C@@H](CCCCN)C(=O)N[C@@H](C)C(=O)N[C@@H](CC(C)C)C(=O)N[C@@H](CCCCN)C(=O)N[C@@H](CCCCN)C(=O)N[C@@H](CC(C)C)C(=O)NCC(=O)N[C@@H](Cc1ccc(O)cc1)C(N)=O` [GLLKKIAKKAKKALKKLGY], the minimal inhibitory concentration (MIC) worked out at 1 µM (≈ 2.1 µg/mL) in the test on Bacillus megaterium Bm11; 4 µM (≈ 8.39 µg/mL) in [12]; 2 µM (≈ 4.2 µg/mL) in [13]; 1 µM (≈ 2.1 µg/mL) against Escherichia coli ML-35; 1 µM (≈ 2.1 µg/mL) in [6].

On to `CC[C@H](C)[C@H](NC(=O)[C@H](CC(=O)O)NC(=O)[C@H](Cc1c[nH]c2ccccc12)NC(=O)[C@H](CCCCN)NC(=O)[C@@H]1CCCN1C(=O)[C@H](CC(C)C)NC(=O)[C@H](CCSC)NC(=O)[C@H](Cc1ccc(O)cc1)NC(=O)[C@H](CC(C)C)NC(=O)[C@H](CC(N)=O)NC(=O)[C@@H](NC(=O)CNC(=O)[C@H](CCCCN)NC(=O)[C@H](Cc1ccccc1)NC(=O)[C@H](Cc1ccccc1)NC(=O)[C@H](CCCCN)NC(=O)[C@H](Cc1ccccc1)NC(=O)[C@H](Cc1ccccc1)NC(=O)[C@H](CCCCN)NC(=O)[C@H](Cc1ccccc1)NC(=O)[C@H](Cc1ccccc1)NC(=O)[C@@H](N)CCCCN)[C@@H](C)O)C(=O)N1CCC[C@H]1C(N)=O` [KFFKFFKFFKGTNLYMLPKWDIP], for which the minimal inhibitory concentration (MIC) in [14] was 0.5 µM (≈ 1.47 µg/mL); in test [15], 1 µM (≈ 2.94 µg/mL); in [16], 2 µM (≈ 5.89 µg/mL); in test [17], 0.25 µM (≈ 0.736 µg/mL); in test [18], 0.5 µM (≈ 1.47 µg/mL); in [19], at least 32 µM. Also, the MIC was 0.25 µM (≈ 0.736 µg/mL) in test [20]; 0.25 µM (≈ 0.736 µg/mL) with Shigella sonnei DSM 5570; 0.25 µM (≈ 0.736 µg/mL) in test [21]; 0.25 µM (≈ 0.736 µg/mL) in test [22]; 1 µM (≈ 2.94 µg/mL) in test [23].

Consider `CC(C)C[C@H](NC(=O)[C@H](C)NC(=O)[C@H](CCCCN)NC(=O)[C@H](CCCCN)NC(=O)[C@H](CCCCN)NC(=O)[C@H](CCCCN)NC(=O)[C@@H](N)CCCCN)C(=O)N[C@@H](Cc1ccccc1)C(=O)N[C@@H](CC(C)C)C(=O)N[C@@H](CCCCN)C(=O)N[C@@H](CC(C)C)C(=O)N[C@@H](Cc1c[nH]c2ccccc12)C(=O)N[C@@H](C)C(=O)N[C@@H](C)C(=O)N[C@@H](Cc1ccccc1)C(=O)N[C@@H](CC(C)C)C(=O)N[C@@H](C)C(N)=O` [KKKKKALFLKLWAAFLA], for which the MIC in [24] is at least 50 µM; in test [25], 6.3 µM (≈ 12.6 µg/mL); against Escherichia coli K-12, 3.1 µM (≈ 6.21 µg/mL); in [26] it was 12.5 µM (≈ 25 µg/mL); in [27], 12.5 µM (≈ 25 µg/mL).

As for `CC[C@H](C)[C@H](NC(=O)[C@H](CCCN=C(N)N)NC(=O)[C@H](CCCN=C(N)N)NC(=O)[C@@H]1CCCN1C(=O)[C@@H]1CCCN1C(=O)[C@H](CCCCN)NC(=O)[C@@H]1CCCN1C(=O)[C@H](CCCN=C(N)N)NC(=O)[C@@H]1CCCN1C(=O)[C@H](CC(C)C)NC(=O)[C@H](Cc1ccc(O)cc1)NC(=O)[C@@H]1CCCN1C(=O)[C@@H]1CCCN1C(=O)[C@H](CCCCN)NC(=O)[C@H](CC(=O)O)NC(=O)[C@@H](N)C(C)C)C(=O)N[C@@H](Cc1ccc(O)cc1)C(=O)N[C@@H](CC(N)=O)C(=O)O` [VDKPPYLPRPKPPRRIYN], the MIC (with Escherichia coli BL21AI; in test [28]) was 7.07 µM (≈ 15.6 µg/mL) throughout.
